The values that follow are results of earlier work, collected in patent publication US20070105828A1, “Novel polymorph form M of mifepristone and process for its preparation” (Glenmark Pharmaceuticals Limited, priority 2005, published 2007).

Each structure is given as a SMILES string.

The data set addresses glucocorticoid receptor (Homo sapiens, UniProt P04150). The following applies: relative to dexamethasone; background statement.

glucocorticoid receptor, sequence (P04150 whole entry, species assumed): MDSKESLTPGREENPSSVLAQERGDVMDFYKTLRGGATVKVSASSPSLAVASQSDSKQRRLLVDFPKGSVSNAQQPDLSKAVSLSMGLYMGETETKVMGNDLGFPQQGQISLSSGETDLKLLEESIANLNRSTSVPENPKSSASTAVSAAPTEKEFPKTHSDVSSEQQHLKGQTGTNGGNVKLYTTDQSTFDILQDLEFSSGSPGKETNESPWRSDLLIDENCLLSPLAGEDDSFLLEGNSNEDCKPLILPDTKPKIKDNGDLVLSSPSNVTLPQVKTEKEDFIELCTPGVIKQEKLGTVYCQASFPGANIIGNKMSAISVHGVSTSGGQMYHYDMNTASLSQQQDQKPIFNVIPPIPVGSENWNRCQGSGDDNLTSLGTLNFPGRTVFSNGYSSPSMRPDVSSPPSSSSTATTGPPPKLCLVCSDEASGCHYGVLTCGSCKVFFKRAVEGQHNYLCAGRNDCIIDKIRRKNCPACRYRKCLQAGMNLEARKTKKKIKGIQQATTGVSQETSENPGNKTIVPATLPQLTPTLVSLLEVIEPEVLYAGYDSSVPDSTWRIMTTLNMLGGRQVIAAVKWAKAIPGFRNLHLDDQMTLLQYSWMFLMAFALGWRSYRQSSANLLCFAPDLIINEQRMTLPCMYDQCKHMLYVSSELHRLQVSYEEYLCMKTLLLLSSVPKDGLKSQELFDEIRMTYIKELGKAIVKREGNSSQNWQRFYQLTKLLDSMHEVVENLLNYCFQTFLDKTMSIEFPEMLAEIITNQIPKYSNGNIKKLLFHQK

As for `CC#C[C@]1(O)CC[C@H]2[C@@H]3CCC4=CC(=O)CCC4=C3[C@@H](c3ccc(N(C)C)cc3)C[C@@]21C` [Mifepristone, (11β,17β)-11-[4-(N,N-dimethylamino)phenyl]-17-hydroxy-17-(1-propynyl)estra-4,9-diene-3-one], the “affinity for the glucocorticoid receptor compared with dexamethasone” value is reported as “three times greater than that of dexamethasone”.
